Results from the NIST ThermoML archive (doi:10.1021/je200903m).
Numbers after ± are expanded uncertainties.

Conditions: Liquid, isochoric method

CCn1cc[n+](C)c1.O=S(=O)([O-])C(F)(F)F [1-ethyl-3-methylimidazolium trifluoromethanesulfonate]
Conditions	mass density [kg/m3]
264.14 K, 39698 kPa	1434.17 ± 1.6
264.21 K, 29714 kPa	1429.2 ± 1.6
264.31 K, 10134 kPa	1419.79 ± 1.6
265.07 K, 1265.2 kPa	1414.41 ± 1.6
271.03 K, 50162 kPa	1433.46 ± 1.6
271.03 K, 50199 kPa	1433.45 ± 1.6
271.04 K, 9677.3 kPa	1413.82 ± 1.6
271.04 K, 11097 kPa	1414.79 ± 1.6
271.04 K, 19702 kPa	1419.12 ± 1.6
271.04 K, 29909 kPa	1424.08 ± 1.6
271.04 K, 30156 kPa	1424.07 ± 1.6
271.04 K, 40035 kPa	1428.5 ± 1.6
271.04 K, 40309 kPa	1428.49 ± 1.6
271.04 K, 60071 kPa	1437.92 ± 1.6
271.05 K, 20286 kPa	1419.1 ± 1.6
271.4 K, 1190.5 kPa	1408.62 ± 1.6
272.28 K, 2655.9 kPa	1408.53 ± 1.6
277.45 K, 49840 kPa	1427.83 ± 1.6
277.68 K, 39776 kPa	1423.39 ± 1.6
277.8 K, 30125 kPa	1418.42 ± 1.6
277.84 K, 10946 kPa	1407.96 ± 1.6
277.84 K, 19967 kPa	1413.12 ± 1.6
284.58 K, 20183 kPa	1407.3 ± 1.6
284.65 K, 40227 kPa	1417.71 ± 1.6
284.69 K, 60421 kPa	1427.09 ± 1.6
284.73 K, 50105 kPa	1422.67 ± 1.6
284.93 K, 30204 kPa	1412.4 ± 1.6
285.1 K, 728.1 kPa	1397.61 ± 1.5
291.42 K, 29930 kPa	1406.61 ± 1.6
291.49 K, 49838 kPa	1417.02 ± 1.6
291.92 K, 10046 kPa	1396.94 ± 1.5
291.92 K, 41361 kPa	1412.67 ± 1.6
291.94 K, 40088 kPa	1411.69 ± 1.6
292.62 K, 61503 kPa	1421.86 ± 1.6
298.19 K, 124.2 kPa	1386.18 ± 1.5
298.19 K, 39944 kPa	1405.91 ± 1.6
299.14 K, 60111 kPa	1416.26 ± 1.6
299.19 K, 50157 kPa	1410.96 ± 1.6
299.54 K, 20406 kPa	1396.18 ± 1.5
300.18 K, 1687.5 kPa	1385.35 ± 1.5
305.75 K, 49851 kPa	1405.17 ± 1.6
306.58 K, 60078 kPa	1410.23 ± 1.6
306.75 K, 10122 kPa	1384.72 ± 1.5
306.76 K, 29599 kPa	1395.48 ± 1.5
313.35 K, 59888 kPa	1404.41 ± 1.6
314.04 K, 19458 kPa	1384.01 ± 1.5
314.64 K, 40402 kPa	1394.69 ± 1.5
315.41 K, 1377.5 kPa	1372.29 ± 1.5
322.27 K, 50268 kPa	1393.94 ± 1.5
322.29 K, 30090 kPa	1383.21 ± 1.5
322.3 K, 9799.1 kPa	1371.63 ± 1.5
329.98 K, 59857 kPa	1393.19 ± 1.5
330.68 K, 40501 kPa	1382.4 ± 1.5
331.49 K, 1256.6 kPa	1358.62 ± 1.5
332.56 K, 22229 kPa	1370.66 ± 1.5
338.11 K, 9067.3 kPa	1358 ± 1.5
338.47 K, 50063 kPa	1381.64 ± 1.5
339.28 K, 30155 kPa	1370.02 ± 1.5
346.74 K, 59641 kPa	1380.85 ± 1.5
347.76 K, 20122 kPa	1357.09 ± 1.5
347.76 K, 40116 kPa	1369.21 ± 1.5

CCCCCCn1cc[n+](C)c1.F[B-](F)(F)F [1-hexyl-3-methylimidazolium tetrafluoroborate]
Conditions	mass density [kg/m3]
219.92 K, 2501.7 kPa	1205.15 ± 1.3
225.14 K, 11244 kPa	1204.69 ± 1.3
230.79 K, 1012.8 kPa	1196.2 ± 1.3
231.39 K, 21744 kPa	1204.14 ± 1.3
236.44 K, 10093 kPa	1195.71 ± 1.3
236.46 K, 30111 kPa	1203.69 ± 1.3
242.31 K, 19417 kPa	1195.2 ± 1.3
243.65 K, 1941.6 kPa	1186.98 ± 1.3
243.68 K, 41792 kPa	1203.05 ± 1.3
248.82 K, 49885 kPa	1202.6 ± 1.3
249.02 K, 10085 kPa	1186.52 ± 1.3
249.02 K, 30013 kPa	1194.61 ± 1.3
255.69 K, 20148 kPa	1185.95 ± 1.3
255.99 K, 40643 kPa	1194.01 ± 1.3
256.48 K, 1742.5 kPa	1177.35 ± 1.3
262.31 K, 10140 kPa	1176.87 ± 1.3
262.31 K, 30102 kPa	1185.39 ± 1.3
263.02 K, 51186 kPa	1193.4 ± 1.3
268.9 K, 59865 kPa	1192.9 ± 1.3
269.12 K, 19855 kPa	1176.3 ± 1.3
269.39 K, 40201 kPa	1184.79 ± 1.3
269.9 K, 2119.2 kPa	1166.18 ± 1.3
275.8 K, 10046 kPa	1165.7 ± 1.3
275.8 K, 29402 kPa	1175.74 ± 1.3
276.43 K, 50285 kPa	1184.19 ± 1.3
283.5 K, 20904 kPa	1165.06 ± 1.3
283.57 K, 60349 kPa	1183.59 ± 1.3
283.61 K, 39900 kPa	1175.1 ± 1.3
284.27 K, 2189.9 kPa	1156.39 ± 1.2
290.66 K, 30442 kPa	1164.48 ± 1.3
290.67 K, 30768 kPa	1165.27 ± 1.3
290.73 K, 10282 kPa	1155.88 ± 1.2
290.73 K, 29904 kPa	1164.49 ± 1.3
290.94 K, 49928 kPa	1174.49 ± 1.3
298.15 K, 104 kPa	1146.14 ± 1.2
298.15 K, 39688 kPa	1164.06 ± 1.3
298.15 K, 40557 kPa	1164.66 ± 1.3
298.17 K, 39707 kPa	1163.88 ± 1.3
298.17 K, 40239 kPa	1163.87 ± 1.3
298.52 K, 20112 kPa	1155.26 ± 1.2
299.11 K, 712.5 kPa	1145.27 ± 1.2
299.38 K, 61164 kPa	1173.79 ± 1.3
305.93 K, 49286 kPa	1163.44 ± 1.3
305.93 K, 49685 kPa	1163.24 ± 1.3
306.82 K, 10007 kPa	1144.66 ± 1.2
306.83 K, 30854 kPa	1154.59 ± 1.2
314.42 K, 60539 kPa	1162.55 ± 1.3
315.25 K, 20171 kPa	1144 ± 1.2
315.38 K, 41468 kPa	1153.9 ± 1.2
315.84 K, 1234.2 kPa	1133.94 ± 1.2
322.71 K, 50376 kPa	1153.32 ± 1.2
323.55 K, 9964.4 kPa	1133.35 ± 1.2
323.55 K, 29837 kPa	1143.36 ± 1.2
330.59 K, 59794 kPa	1152.68 ± 1.2
332.16 K, 39991 kPa	1142.68 ± 1.2
332.36 K, 19953 kPa	1132.67 ± 1.2
333.47 K, 1089.8 kPa	1121.71 ± 1.2
340.92 K, 49956 kPa	1141.99 ± 1.2
341.61 K, 9779.8 kPa	1121.11 ± 1.2
341.63 K, 29941 kPa	1131.97 ± 1.2
349.19 K, 1374.3 kPa	1111.71 ± 1.2
349.88 K, 60027 kPa	1141.28 ± 1.2
350.49 K, 39672 kPa	1131.28 ± 1.2
351.2 K, 20298 kPa	1120.38 ± 1.2
357.12 K, 9595.1 kPa	1111.13 ± 1.2
357.12 K, 26381 kPa	1119.93 ± 1.2
357.12 K, 46792 kPa	1130.77 ± 1.2

CCCCCCn1cc[n+](C)c1.O=S(=O)([O-])C(F)(F)F [1-hexyl-3-methylimidazolium trifluoromethanesulfonate]
Conditions	mass density [kg/m3]
303.14 K, 103.8 kPa	1234.94 ± 1.4
303.15 K, 8671.3 kPa	1241.37 ± 1.4
303.15 K, 9948.5 kPa	1242.12 ± 1.4
303.15 K, 10145 kPa	1241.33 ± 1.4
303.15 K, 18778 kPa	1246.84 ± 1.4
303.15 K, 29540 kPa	1252.92 ± 1.4
303.15 K, 50077 kPa	1263.74 ± 1.4
303.15 K, 50213 kPa	1263.74 ± 1.4
303.16 K, 19876 kPa	1246.81 ± 1.4
303.16 K, 30131 kPa	1252.9 ± 1.4
303.16 K, 40525 kPa	1258.84 ± 1.4
303.16 K, 40749 kPa	1258.84 ± 1.4
303.93 K, 1169.5 kPa	1236.1 ± 1.4
311.1 K, 19363 kPa	1240.66 ± 1.4
311.1 K, 50109 kPa	1258.15 ± 1.4
311.4 K, 59971 kPa	1263.03 ± 1.4
311.64 K, 29371 kPa	1246.09 ± 1.4
312.12 K, 10064 kPa	1235.43 ± 1.4
312.13 K, 19984 kPa	1241.37 ± 1.4
312.35 K, 40711 kPa	1252.12 ± 1.4
312.67 K, 1137.8 kPa	1229.31 ± 1.3
320.01 K, 60231 kPa	1257.4 ± 1.4
320.69 K, 29908 kPa	1239.86 ± 1.4
321.26 K, 40148 kPa	1245.28 ± 1.4
321.32 K, 10225 kPa	1228.6 ± 1.3
321.34 K, 19896 kPa	1234.67 ± 1.4
321.7 K, 51336 kPa	1251.33 ± 1.4
322.86 K, 1202 kPa	1221.53 ± 1.3
330.07 K, 40113 kPa	1239.07 ± 1.4
330.33 K, 60665 kPa	1250.61 ± 1.4
330.45 K, 29706 kPa	1233.91 ± 1.4
330.66 K, 50504 kPa	1244.49 ± 1.4
331.61 K, 20974 kPa	1227.76 ± 1.3
331.62 K, 10028 kPa	1220.82 ± 1.3
332.5 K, 1153.4 kPa	1214.09 ± 1.3
339.16 K, 49816 kPa	1238.32 ± 1.4
339.45 K, 59226 kPa	1243.78 ± 1.4
340.07 K, 39808 kPa	1233.11 ± 1.3
340.31 K, 30074 kPa	1227.04 ± 1.3
341.51 K, 9933.5 kPa	1213.37 ± 1.3
341.52 K, 20038 kPa	1220.02 ± 1.3
342.34 K, 977.2 kPa	1206.6 ± 1.3
348.25 K, 58008 kPa	1237.59 ± 1.4
349.94 K, 49966 kPa	1232.3 ± 1.3
350.06 K, 39798 kPa	1226.25 ± 1.3
351.54 K, 29910 kPa	1219.2 ± 1.3
351.77 K, 10055 kPa	1205.85 ± 1.3
351.77 K, 19878 kPa	1212.55 ± 1.3
